Where only a bound is given, the exact number is not on record here.

Assay [1] addresses T1, HDAC10 (Homo sapiens, UniProt Q969S8).
T1 construct: made in house; host or cells: HEK293/T17
T1 sequence (Q969S8 1-669): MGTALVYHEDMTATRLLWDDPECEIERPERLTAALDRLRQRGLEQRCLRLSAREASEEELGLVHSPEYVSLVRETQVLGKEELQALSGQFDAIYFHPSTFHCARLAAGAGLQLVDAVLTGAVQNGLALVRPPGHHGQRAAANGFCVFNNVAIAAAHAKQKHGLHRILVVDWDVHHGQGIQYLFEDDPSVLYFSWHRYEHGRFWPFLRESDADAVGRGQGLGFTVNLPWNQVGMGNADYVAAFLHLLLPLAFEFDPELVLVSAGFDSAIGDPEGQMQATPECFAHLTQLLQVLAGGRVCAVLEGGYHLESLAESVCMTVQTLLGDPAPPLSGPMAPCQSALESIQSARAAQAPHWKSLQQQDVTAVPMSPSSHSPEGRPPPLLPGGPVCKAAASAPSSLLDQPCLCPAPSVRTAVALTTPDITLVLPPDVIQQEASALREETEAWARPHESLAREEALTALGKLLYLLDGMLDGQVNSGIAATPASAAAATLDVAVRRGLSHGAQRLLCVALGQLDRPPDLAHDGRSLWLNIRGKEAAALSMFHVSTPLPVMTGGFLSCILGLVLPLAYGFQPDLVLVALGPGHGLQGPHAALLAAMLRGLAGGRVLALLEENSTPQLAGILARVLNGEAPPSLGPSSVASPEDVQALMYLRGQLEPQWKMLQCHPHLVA
In words: HDAC10 inhibition assay (HPLC readout). It counts as biochemical. The conditions noted are these: purified human protein, fluorescein-labeled N8-acetylspermidine substrate, 15 min preincubation. The procedure: Large-scale expression of recombinant human HDACs was carried out as described previously.[32],[37] Briefly, HEK293/T17 cells were transiently transfected with expression pMM222 plasmids comprising N-terminally tagged (TwinStrep-FLAG-HALO tag; Figure S1) HDAC genes using linear poly(ethyleneimine) (PEI, Polysciences Inc.). Cells were harvested three days post-transfection, and cell pellets were resuspended in the lysis buffer (100 mM Tris-HCl, 10 mM NaCl, 5 mM KCl, 2 mM MgCl2, and 10% glycerol at pH 8.0). Cells were disrupted by sonication, cell lysates were cleared by centrifugation, and soluble fusion proteins were first purified by Streptactin affinity chromatography (IBA). For all HDACs but HDACs 1, 10, and 11, the N-terminal tag was cleaved off overnight by the addition of TEV protease (10:1 HDAC/TEV ratio). […]
(§1) Optimized fluorometric assays were used to determine inhibition constants of studied compounds against individual HDAC isoforms as described previously.[32] […] Deacetylation reactions were monitored either by high-performance liquid chromatography (HPLC) (HDAC10) or by quantification of released AMC (λex/λem = 365/440 nm) using a CLARIOstar plate reader (BMG Labtech GmbH).

The target of assay [2] is T2, zHDAC6 (WT) (Danio rerio, UniProt F8W4B7).
T2 construct: Danio rerio HDAC6 (amino acids 440–798; zHDAC6); His (N, cleaved yes); MBP (N, cleaved yes); made in house; host or cells: RIPL Escherichia coli
T2 sequence (F8W4B7 440-798): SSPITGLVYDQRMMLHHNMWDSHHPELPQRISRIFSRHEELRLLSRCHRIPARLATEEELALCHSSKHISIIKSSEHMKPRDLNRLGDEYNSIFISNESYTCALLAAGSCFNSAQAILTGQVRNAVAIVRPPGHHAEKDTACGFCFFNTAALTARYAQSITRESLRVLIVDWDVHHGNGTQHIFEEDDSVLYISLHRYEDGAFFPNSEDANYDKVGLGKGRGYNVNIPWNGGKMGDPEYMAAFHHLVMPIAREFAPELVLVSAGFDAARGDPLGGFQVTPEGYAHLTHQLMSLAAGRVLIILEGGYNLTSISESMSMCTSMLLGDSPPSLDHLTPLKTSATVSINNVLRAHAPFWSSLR
In words: Inhibition assay, zebrafish HDAC6 catalytic DD2 domain, wild type. It counts as biochemical. Here is the method:
The second catalytic domain of Danio rerio HDAC6 (amino acids 440–798; zHDAC6) was expressed in RIPL Escherichia coli as described previously using the pEC566-zHDAC6 expression vector.[16],[38] Briefly, bacteria were incubated at 37 °C with shaking (250 rpm) until the optical density reached an OD600 = 0.5. Then, the culture was cooled to 18 °C for 1 h, and recombinant protein expression was induced by the addition of 75 μM isopropyl β-D-1-thiogalactopyranoside together with 200 μM ZnSO4. The culture was grown at 18 °C for an additional 18 h and harvested by centrifugation at 5500g for 15 min. The cell pellet was resuspended in the lysis buffer (50 mM phosphate, 300 mM NaCl, 10% glycerol, and 20 mM imidazole at pH 8; 5 mL g^–1 bacterial pellet) and lysed by three passages through EmulsiFlex (Avestin). Cell lysates were centrifuged (15,000g at 4 °C for 20 min), and the fusion protein in the supernatant was purified via Ni-NTA chromatography. […] The purity of protein preparations was monitored by SDS-PAGE (Figure S2).
as §1

`CS(=O)(=O)N(Cc1ccc(-c2nnc(C(F)F)o2)cn1)c1cccc(Cl)c1` [compound 8] displayed an IC50 in assay [1] above 20 µM. Still for that read-out and setting: the result for `CS(=O)(=O)N(Cc1ccc(-c2nnc(C(F)(F)F)o2)cn1)c1cccc(Cl)c1` [compound 7] reads above 20 µM.

Regarding `CS(=O)(=O)N(Cc1ccc(C(=O)NN)cn1)c1cccc(Cl)c1` [compound 4], the IC50 in assay [2] amounted to 3.87 ± 1.64 µM. In assay [2], `CS(=O)(=O)N(Cc1ccc(C(=O)NNC(=O)C(F)F)cn1)c1cccc(Cl)c1` [compound 6] gave an IC50 of 41.7 µM. This IC50 is about 11-fold higher than that of the compound before.

For orientation: IC50 means the concentration that inhibits the measured activity by half.

(Values after PMC10367051, “Comprehensive Mechanistic View of the Hydrolysis of Oxadiazole-Based Inhibitors by Histone Deacetylase 6 (HDAC6)” (ACS Chemical Biology, 2023).)
